With `N#Cc1c[nH]cc1-c1cccc(Cl)c1Cl` as the compound, how does the logP read?
Its logP is 3.78.

Which logP does the source give for `CCCN(CCC)c1c([N+](=O)[O-])cc(C(F)(F)F)cc1[N+](=O)[O-]` here?
Its logP is 4.98.

With `CCCCOCCOCCOCc1cc2c(cc1CCC)OCO2` as the compound, how does the logP read?
Its logP is 4.39.

With `CO/C=C(/C(=O)OC)c1ccccc1Oc1cc(Oc2ccccc2C#N)ncn1` as the compound, how does the logP read?
Its logP is 2.97.

For `CON=C1C[C@]2(C[C@@H]3C[C@@H](C/C=C(\C)C[C@@H](C)C=C/C=C4\CO[C@@H]5[C@H](O)C(C)=C[C@@H](C(=O)O3)[C@]45O)O2)O[C@H](/C(C)=C/C(C)C)[C@H]1C`, which logP is on record?
The logP was 4.99.

For `CC(C)N(C(=O)COc1nnc(C(F)(F)F)s1)c1ccc(F)cc1`, which logP is on record?
Its logP is 3.19.

For `COP(=S)(OC)SCC(=O)N(c1ccc(Cl)cc1)C(C)C`, which logP is on record?
The logP was 3.8.

Which logP does the source give for `CC1=C(C(=O)Nc2ccccc2)S(=O)(=O)CCO1` here?
The logP was 1.13.

For `CC(C)C(C(=O)OC(C#N)c1cccc(Oc2ccccc2)c1)c1ccc(Cl)cc1` (stereo unspecified), which logP is on record?
The logP was 5.71.

For `Oc1ccc(Oc2ccccc2)cc1`, which logP is on record?
The logP was 3.92.

For `C=CCc1ccccc1OC[C@@H](O)CNC(C)C`, which logP is on record?
The logP was 2.63.

With `C[C@H]1O[C@@H](O[C@H]2[C@@H](O)C[C@H](O[C@H]3[C@@H](O)C[C@H](O[C@H]4CC[C@@]5(C)[C@H](CC[C@@H]6[C@@H]5CC[C@]5(C)[C@@H](C7=CC(=O)OC7)CC[C@]65O)C4)O[C@@H]3C)O[C@@H]2C)C[C@H](O)[C@@H]1O` as the compound, how does the logP read?
The logP was 3.42.

Which logP does the source give for `CC(C)(C)c1ccc(CCOc2ncnc3ccccc23)cc1` here?
The logP was 4.91.

Which logP does the source give for `CCOCn1c(-c2ccc(Cl)cc2)c(C#N)c(Br)c1C(F)(F)F` here?
The logP was 4.61.

With `COc1ccc(-c2ccccc2)cc1NNC(=O)OC(C)C` as the compound, how does the logP read?
The logP was 3.8.

For `CN(C)CCC=C1c2ccccc2COc2ccccc21`, which logP is on record?
Its logP is 3.75.

Source: the SangsterLogP compilation
